Results taken from patent US7714006B1, “Methods of modifying the bioavailability of metaxalone” (King Pharmaceuticals Research & Development, Inc., priority 2001, dated 2010).

Experiments:
[1] = Effects of age and gender on fasted PK parameters, study 106 (2×400 mg without food); type: in vivo, human
Description: (§1) In addition, the robustness of the results are assessed by applying similar analysis approaches to the data from two other studies: • Study AN151607-101 (hereafter referred to as the 101 study): a two-period, randomized crossover trial with treatment conditions 1×400 mg with food and 1×400 mg without food; • Study AN151607-106 (hereafter referred to as the 106 study): a single dose trial with treatment condition 2×400 mg without food.
(§2) Study 106 was a single dose trial conducted in 48 healthy volunteers. The mean age was 24.7 years, with a range from 18 to 50 years. The single treatment condition in this study was 2×400 mg without food. Blood samples for PK analyses were obtained at the same time points as in the 103 and 105 studies.
First, Pearson and Spearman correlation coefficients between age and each of the three PK parameters were computed. The correlation coefficients and two-sided p-values from the test of the null hypothesis of no association are shown below in TABLE VIIIa:
(§3) Linear regression models using the natural logarithm of each of the three PK parameters as the dependent variable and age as the independent variable were fitted in order to estimate the magnitude of the associations with age.
as §2, with “volunteers (24 males, 24 females).” for “volunteers.”
The same regression modeling strategy as was described in Sections 3.2 and 3.3 was also used. In the initial regression models with a gender effect and separate age effects for males and females, the parameter estimates for all three variables were negative for males and positive for females. In addition, the age effect in females was statistically significant for ln(AUC(last)) and ln(AUC(inf)). However, the tests of equality between the age effects for males and females (i.e., the age-by-gender interaction) were not statistically significant for any of the three variables; the p-values ranged from 0.08 to 0.11.

[2] = Effects of age and gender on PK parameters, study 101 (1×400 mg with and without food); type: in vivo, human
Description: as §1
Study 101 was a two-period randomized crossover trial conducted in 42 healthy volunteers. The mean age was 23.8 years, with a range from 18 to 42 years. The treatment conditions were 1×400 mg with food and 1×400 mg without food. Because the treatments were not the same as in the 103 and 105 studies (1×400 mg in study 101, as opposed to 2×400 mg in studies 103 and 105), and additionally because the blood sample collection schedules were not the same, it is not possible to combine the 101 data with the data from studies 103 and 105. However, it is possible to independently investigate the effects of age on fed and fasted values of the PK parameters in order to determine if the effects are of similar magnitude and direction to those found in the 103 and 105 studies.
First, Pearson and Spearman correlation coefficients between age and each of the three PK parameters were computed. The correlation coefficients and two-sided p-values from the test of the null hypothesis of no association are shown below in TABLE VIa:
as §3
Study 101 was a two-period randomized crossover trial conducted in 42 healthy volunteers (31 males, 11 females). The mean age was 23.8 years, with a range from 18 to 42 years. The treatment conditions were 1×400 mg with food and 1×400 mg without food. Because the treatments were not the same as in the 103 and 105 studies, and additionally because the blood sample collection schedules were not the same, it is not possible to combine the 101 data with the data from studies 103 and 105. However, it is reasonable to independently investigate the effects of age and gender on the fed and fasted values of the PK parameters in order to determine if the effects are of similar magnitude and direction to those found in the 103 and 105 studies.
The same regression modeling strategy as was described in Sections 3.2 and 3.3 was also applied. The initial regression models with a gender effect and separate age effects for males and females yielded positive estimates of the age effect for males and negative estimates for females. This was consistent across all three PK parameters. However, none of the age effects was statistically significant and, in addition, there was no significant evidence of interaction between age and gender (all p-values exceeded 0.10). […]

Pearson correlation, age vs ln(AUC(inf)) ([1]; females n=24): 0.416
Pearson correlation, age vs ln(AUC(last)) ([1]; females n=24): 0.431
Pearson correlation, age vs ln(Cmax) ([1]; females n=24): 0.336
Spearman correlation, age vs ln(AUC(inf)) ([1]; females n=24): 0.368
Spearman correlation, age vs ln(AUC(last)) ([1]; females n=24): 0.428
Spearman correlation, age vs ln(Cmax) ([1]; females n=24): 0.279
Pearson correlation, age vs ln(AUC(inf)) ([1]; males n=24): −0.184
Pearson correlation, age vs ln(AUC(last)) ([1]; males n=24): −0.178
Pearson correlation, age vs ln(Cmax) ([1]; males n=24): −0.202
Spearman correlation, age vs ln(AUC(inf)) ([1]; males n=24): −0.368
Spearman correlation, age vs ln(AUC(last)) ([1]; males n=24): −0.365
Spearman correlation, age vs ln(Cmax) ([1]; males n=24): −0.316
Pearson correlation, age vs ln(AUC(inf)) ([1]; n=48): 0.348
Pearson correlation, age vs ln(AUC(last)) ([1]; n=48): 0.349
Pearson correlation, age vs ln(Cmax) ([1]; n=48): 0.260
Spearman correlation, age vs ln(AUC(inf)) ([1]; n=48): 0.173
Spearman correlation, age vs ln(AUC(last)) ([1]; n=48): 0.189
Spearman correlation, age vs ln(Cmax) ([1]; n=48): 0.125
Proportion of variability explained by age, ln(AUC(inf)) ([2]; fasted): 7.7%
Proportion of variability explained by age, ln(Cmax) ([2]; fasted): 13.4%
Pearson correlation, age vs ln(AUC(inf)) ([2]; fasted, females n=11): 0.208
Pearson correlation, age vs ln(AUC(last)) ([2]; fasted, females n=11): 0.284
Pearson correlation, age vs ln(Cmax) ([2]; fasted, females n=11): 0.309
Spearman correlation, age vs ln(AUC(inf)) ([2]; fasted, females n=11): 0.235
Spearman correlation, age vs ln(AUC(last)) ([2]; fasted, females n=11): 0.406
Spearman correlation, age vs ln(Cmax) ([2]; fasted, females n=11): 0.525
Pearson correlation, age vs ln(AUC(inf)) ([2]; fasted, males n=31): 0.287
Pearson correlation, age vs ln(AUC(last)) ([2]; fasted, males n=31): 0.279
Pearson correlation, age vs ln(Cmax) ([2]; fasted, males n=31): 0.384
Spearman correlation, age vs ln(AUC(inf)) ([2]; fasted, males n=31): 0.115
Spearman correlation, age vs ln(AUC(last)) ([2]; fasted, males n=31): 0.127
Spearman correlation, age vs ln(Cmax) ([2]; fasted, males n=31): 0.206
Pearson correlation, age vs ln(AUC(inf)) ([2]; fasted, n=42): 0.277
Pearson correlation, age vs ln(AUC(last)) ([2]; fasted, n=42): 0.289
Pearson correlation, age vs ln(Cmax) ([2]; fasted, n=42): 0.366
Spearman correlation, age vs ln(AUC(inf)) ([2]; fasted, n=42): 0.146
Spearman correlation, age vs ln(AUC(last)) ([2]; fasted, n=42): 0.161
Spearman correlation, age vs ln(Cmax) ([2]; fasted, n=42): 0.235
Proportion of variability explained by age, ln(AUC(inf)) ([2]; fed): 3%
Proportion of variability explained by age, ln(AUC(last)) ([2]; fed): 3%
Proportion of variability explained by age, ln(Cmax) ([2]; fed): 1%
Pearson correlation, age vs ln(AUC(inf)) ([2]; fed, females n=11): −0.165
Pearson correlation, age vs ln(AUC(last)) ([2]; fed, females n=11): −0.188
Pearson correlation, age vs ln(Cmax) ([2]; fed, females n=11): −0.396
Spearman correlation, age vs ln(AUC(inf)) ([2]; fed, females n=11): −0.244
Spearman correlation, age vs ln(AUC(last)) ([2]; fed, females n=11): −0.295
Spearman correlation, age vs ln(Cmax) ([2]; fed, females n=11): −0.645
Pearson correlation, age vs ln(AUC(inf)) ([2]; fed, males n=31): 0.268
Pearson correlation, age vs ln(AUC(last)) ([2]; fed, males n=31): 0.271
Pearson correlation, age vs ln(Cmax) ([2]; fed, males n=31): 0.234
Spearman correlation, age vs ln(AUC(inf)) ([2]; fed, males n=31): 0.088
Spearman correlation, age vs ln(AUC(last)) ([2]; fed, males n=31): 0.094
Spearman correlation, age vs ln(Cmax) ([2]; fed, males n=31): 0.169
Pearson correlation, age vs ln(AUC(inf)) ([2]; fed, n=42): 0.186
Pearson correlation, age vs ln(AUC(last)) ([2]; fed, n=42): 0.179
Pearson correlation, age vs ln(Cmax) ([2]; fed, n=42): 0.102
Spearman correlation, age vs ln(AUC(inf)) ([2]; fed, n=42): 0.029
Spearman correlation, age vs ln(AUC(last)) ([2]; fed, n=42): 0.022
Spearman correlation, age vs ln(Cmax) ([2]; fed, n=42): −0.009
Compound: Cc1cc(C)cc(OCC2CNC(=O)O2)c1 (centres unmarked) [metaxalone, 5-[(3,5-dimethylphenoxy)methyl]-2 oxazolidinone]
